Results: patent publication US20100267561A1, “HERBICIDAL PYRIDAZINONE DERIVATIVES” (priority 2007, published 2010)

Experiments:
Assay type in all cases: in vivo
[1] = tested on: common chickweed (Stellaria media); assay: Test E pre-/postemergence plant response; details: 16 g ai/ha, Preemergence, scale 0 to 100
Method in brief: (§1)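 Steps: sow seeds; apply compound preemergence in a non-phytotoxic solvent/surfactant formulation; in parallel, spray the same formulation postemergence on 1- to 4-leaf plants (2–18 cm); hold 14–21 days in a greenhouse; rate visually vs controls, 0 = no effect, 100 = complete control.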

[2] = tested on: annual bluegrass (Poa annua); assay: Test E pre-/postemergence plant response; details: scale 0 to 100
Method in brief: as §1

[3] = tested on: naked crabgrass (Digitaria nuda); assay: Test E pre-/postemergence plant response; details: scale 0 to 100
Method in brief: as §1

[4] = tested on: common mallow (Malva sylvestris); assay: Test E pre-/postemergence plant response; details: scale 0 to 100
Method in brief: as §1

[5] = tested on: barnyardgrass (Echinochloa crus-galli); assay: Test E pre-/postemergence plant response; details: scale 0 to 100
Method in brief: as §1

[6] = tested on: dallisgrass (Paspalum dilatatum); assay: Test E pre-/postemergence plant response; details: scale 0 to 100
Method in brief: as §1

[7] = tested on: green foxtail (Setaria viridis); assay: Test E pre-/postemergence plant response; details: scale 0 to 100
Method in brief: as §1

[8] = tested on: broadleaf signalgrass (Brachiaria platyphylla); assay: Test E pre-/postemergence plant response; details: scale 0 to 100
Method in brief: as §1

[9] = tested on: itchgrass (Rottboellia cochinchinensis); assay: Test E pre-/postemergence plant response; details: scale 0 to 100
Method in brief: as §1

[10] = tested on: johnsongrass (Sorghum halepense); assay: Test E pre-/postemergence plant response; details: scale 0 to 100
Method in brief: as §1

[11] = tested on: bermudagrass (Cynodon dactylon); assay: Test E pre-/postemergence plant response; details: scale 0 to 100
Method in brief: as §1

[12] = tested on: spring barley (Hordeum vulgare); assay: Test C pre-/postemergence plant response; details: Preemergence
Method in brief: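 Both preemergence (to planted seed) and postemergence (to plants 2–18 cm high, 1- to 4-leaf) applications used test chemicals in a non-phytotoxic solvent mixture containing surfactant. Evaluation: visual comparison with controls after 15 to 25 days; 0 means no effect, 100 complete control.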

**Q.** Which results are given for `Cc1cc(-c2ccc(Cl)cc2)nn1-c1c(OC(=O)C(C)C)cnn(C)c1=O` [Compound 34]?
**A.** Plant response rating, Chickweed [1]: 0; Plant response rating, Bluegrass ([2]; 16 g ai/ha, Preemergence): 0; Plant response rating, Bluegrass ([2]; 31 g ai/ha, Preemergence): 0; Plant response rating, Bluegrass ([2]; 62 g ai/ha, Preemergence): 15; Plant response rating, Bluegrass ([2]; Postemergence, 8 g ai/ha): 0; Plant response rating, Bluegrass ([2]; Postemergence, 16 g ai/ha): 0; Plant response rating, Bluegrass ([2]; Postemergence, 31 g ai/ha): 0; Plant response rating, Bluegrass ([2]; Postemergence, 62 g ai/ha): 0; Plant response rating, Crabgrass, Naked ([3]; 16 g ai/ha, Preemergence): 100; Plant response rating, Crabgrass, Naked ([3]; 31 g ai/ha, Preemergence): 100; Plant response rating, Crabgrass, Naked ([3]; 62 g ai/ha, Preemergence): 100; Plant response rating, Crabgrass, Naked ([3]; Postemergence, 8 g ai/ha): 40; Plant response rating, Crabgrass, Naked ([3]; Postemergence, 16 g ai/ha): 80; Plant response rating, Crabgrass, Naked ([3]; Postemergence, 62 g ai/ha): 100; Plant response rating, Mallow ([4]; 16 g ai/ha, Preemergence): 0; Plant response rating, Mallow ([4]; 31 g ai/ha, Preemergence): 0; Plant response rating, Mallow ([4]; 62 g ai/ha, Preemergence): 0; Plant response rating, Mallow ([4]; Postemergence, 8 g ai/ha): 0; Plant response rating, Mallow ([4]; Postemergence, 16 g ai/ha): 0; Plant response rating, Mallow ([4]; Postemergence, 31 g ai/ha): 0; Plant response rating, Mallow ([4]; Postemergence, 62 g ai/ha): 0; Plant response rating, Barnyardgrass ([5]; 16 g ai/ha, Preemergence): 80; Plant response rating, Barnyardgrass ([5]; 31 g ai/ha, Preemergence): 100; Plant response rating, Barnyardgrass ([5]; 62 g ai/ha, Preemergence): 100; Plant response rating, Barnyardgrass ([5]; Postemergence, 8 g ai/ha): 95; Plant response rating, Barnyardgrass ([5]; Postemergence, 16 g ai/ha): 100; Plant response rating, Barnyardgrass ([5]; Postemergence, 31 g ai/ha): 100; Plant response rating, Barnyardgrass ([5]; Postemergence, 62 g ai/ha): 100; Plant response rating, Dallisgrass ([6]; 16 g ai/ha, Preemergence): 50; Plant response rating, Dallisgrass ([6]; 31 g ai/ha, Preemergence): 85; Plant response rating, Dallisgrass ([6]; 62 g ai/ha, Preemergence): 85; Plant response rating, Dallisgrass ([6]; Postemergence, 8 g ai/ha): 10; Plant response rating, Dallisgrass ([6]; Postemergence, 16 g ai/ha): 20; Plant response rating, Dallisgrass ([6]; Postemergence, 31 g ai/ha): 20; Plant response rating, Dallisgrass ([6]; Postemergence, 62 g ai/ha): 70; Plant response rating, Foxtail, Green ([7]; 16 g ai/ha, Preemergence): 65; Plant response rating, Foxtail, Green ([7]; 31 g ai/ha, Preemergence): 75; Plant response rating, Foxtail, Green ([7]; 62 g ai/ha, Preemergence): 100; Plant response rating, Foxtail, Green ([7]; Postemergence, 8 g ai/ha): 50; Plant response rating, Foxtail, Green ([7]; Postemergence, 16 g ai/ha): 75; Plant response rating, Foxtail, Green ([7]; Postemergence, 31 g ai/ha): 95; Plant response rating, Foxtail, Green ([7]; Postemergence, 62 g ai/ha): 98; Plant response rating, Signalgrass ([8]; 16 g ai/ha, Preemergence): 65; Plant response rating, Signalgrass ([8]; 31 g ai/ha, Preemergence): 90; Plant response rating, Signalgrass ([8]; 62 g ai/ha, Preemergence): 100; Plant response rating, Signalgrass ([8]; Postemergence, 8 g ai/ha): 75; Plant response rating, Signalgrass ([8]; Postemergence, 16 g ai/ha): 85; Plant response rating, Signalgrass ([8]; Postemergence, 31 g ai/ha): 95; Plant response rating, Signalgrass ([8]; Postemergence, 62 g ai/ha): 100; Plant response rating, Itchgrass ([9]; 16 g ai/ha, Preemergence): 80; Plant response rating, Itchgrass ([9]; 31 g ai/ha, Preemergence): 85; Plant response rating, Itchgrass ([9]; 62 g ai/ha, Preemergence): 90; Plant response rating, Itchgrass ([9]; Postemergence, 8 g ai/ha): 70; Plant response rating, Itchgrass ([9]; Postemergence, 16 g ai/ha): 80; Plant response rating, Itchgrass ([9]; Postemergence, 31 g ai/ha): 95; Plant response rating, Itchgrass ([9]; Postemergence, 62 g ai/ha): 95; Plant response rating, Johnsongrass ([10]; 16 g ai/ha, Preemergence): 50; Plant response rating, Johnsongrass ([10]; 31 g ai/ha, Preemergence): 90; Plant response rating, Johnsongrass ([10]; 62 g ai/ha, Preemergence): 90; Plant response rating, Johnsongrass ([10]; Postemergence, 8 g ai/ha): 10; Plant response rating, Johnsongrass ([10]; Postemergence, 16 g ai/ha): 80; Plant response rating, Johnsongrass ([10]; Postemergence, 31 g ai/ha): 98; Plant response rating, Johnsongrass ([10]; Postemergence, 62 g ai/ha): 100; Plant response rating, Bermudagrass ([11]; 16 g ai/ha, Preemergence): 40; Plant response rating, Bermudagrass ([11]; 31 g ai/ha, Preemergence): 90; Plant response rating, Bermudagrass ([11]; 62 g ai/ha, Preemergence): 100; Plant response rating, Bermudagrass ([11]; Postemergence, 8 g ai/ha): 20; Plant response rating, Bermudagrass ([11]; Postemergence, 16 g ai/ha): 50; Plant response rating, Bermudagrass ([11]; Postemergence, 31 g ai/ha): 80; Plant response rating, Bermudagrass ([11]; Postemergence, 62 g ai/ha): 95; Plant response rating, Barley, Spring ([12]; 8 g ai/ha, scale 0 to 100 (0 no effect, 100 complete control)): 0; Plant response rating, Barley, Spring ([12]; 16 g ai/ha, scale 0 to 100 (0 no effect, 100 complete control)): 0; Plant response rating, Barley, Spring ([12]; 31 g ai/ha, scale 0 to 100 (0 no effect, 100 complete control)): 0; Plant response rating, Barley, Spring ([12]; 62 g ai/ha, scale 0 to 100, 0 no effect, 100 complete control): 70
